Patent US10670605B2, “Cysteine reactive probes and uses thereof” (The Scripps Research Institute, priority 2015, dated 2020)

Key:
Test in all cases: Competitive isoTOP-ABPP, cell lysates
Format in all cases: binding
[1] = molecular target: T1, IDH2 C308 (P48735) (Homo sapiens, UniProt P48735); settings: for R value (DMSO/fragment): in vitro, MDA-MB-231; for isoTOP-ABPP ratio, P48735_C308: invitro, 231
T1 sequence (P48735 40-452): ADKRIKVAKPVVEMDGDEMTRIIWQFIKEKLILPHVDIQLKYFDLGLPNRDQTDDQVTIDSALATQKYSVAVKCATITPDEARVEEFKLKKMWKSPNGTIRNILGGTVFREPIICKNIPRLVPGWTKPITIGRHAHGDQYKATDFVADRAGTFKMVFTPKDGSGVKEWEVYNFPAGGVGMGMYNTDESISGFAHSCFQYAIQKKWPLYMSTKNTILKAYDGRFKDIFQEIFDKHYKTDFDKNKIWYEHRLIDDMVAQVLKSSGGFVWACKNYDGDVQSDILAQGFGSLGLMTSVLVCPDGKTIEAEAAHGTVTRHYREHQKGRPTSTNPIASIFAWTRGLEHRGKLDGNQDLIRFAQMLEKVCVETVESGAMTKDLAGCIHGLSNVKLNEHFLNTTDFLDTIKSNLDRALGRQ

[2] = molecular target: T2, PDIA6 C55 (Q15084) (Homo sapiens, UniProt Q15084)
T2 sequence (Q15084 20-440): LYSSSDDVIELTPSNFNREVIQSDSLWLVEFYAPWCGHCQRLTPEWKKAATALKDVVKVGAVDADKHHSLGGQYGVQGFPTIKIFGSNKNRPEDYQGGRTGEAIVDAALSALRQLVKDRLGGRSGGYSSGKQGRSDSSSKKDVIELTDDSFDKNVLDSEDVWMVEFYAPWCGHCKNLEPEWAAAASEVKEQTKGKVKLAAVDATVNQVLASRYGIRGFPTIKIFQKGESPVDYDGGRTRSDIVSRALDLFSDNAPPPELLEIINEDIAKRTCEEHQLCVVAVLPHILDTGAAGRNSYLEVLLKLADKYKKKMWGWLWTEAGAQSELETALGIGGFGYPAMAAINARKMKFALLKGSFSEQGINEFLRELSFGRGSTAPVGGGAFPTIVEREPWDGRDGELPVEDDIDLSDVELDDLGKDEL

[3] = molecular target: PRMT1 C109 (Q99873) (Homo sapiens, UniProt Q99873); settings: for blockade of IA-alkyne labeling of C109 of PRMT1: competitive isoTOP-ABPP
[4] = molecular target: T3, UCHL3 C95 (P15374) (Homo sapiens, UniProt P15374)
T3 sequence (P15374 1-230): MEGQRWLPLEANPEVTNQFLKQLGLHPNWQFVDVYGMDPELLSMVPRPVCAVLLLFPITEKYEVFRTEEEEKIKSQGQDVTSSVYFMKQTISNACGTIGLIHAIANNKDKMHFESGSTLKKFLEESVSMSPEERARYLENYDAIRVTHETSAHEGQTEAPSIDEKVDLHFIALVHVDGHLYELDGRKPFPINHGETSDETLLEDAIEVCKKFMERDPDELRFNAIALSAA

[5] = molecular target: ZNF217 C286 (O75362) (Homo sapiens, UniProt O75362)
[6] = molecular target: T4, IRF4 C194 (Q15306) (Homo sapiens, UniProt Q15306)
T4 sequence (Q15306 1-451): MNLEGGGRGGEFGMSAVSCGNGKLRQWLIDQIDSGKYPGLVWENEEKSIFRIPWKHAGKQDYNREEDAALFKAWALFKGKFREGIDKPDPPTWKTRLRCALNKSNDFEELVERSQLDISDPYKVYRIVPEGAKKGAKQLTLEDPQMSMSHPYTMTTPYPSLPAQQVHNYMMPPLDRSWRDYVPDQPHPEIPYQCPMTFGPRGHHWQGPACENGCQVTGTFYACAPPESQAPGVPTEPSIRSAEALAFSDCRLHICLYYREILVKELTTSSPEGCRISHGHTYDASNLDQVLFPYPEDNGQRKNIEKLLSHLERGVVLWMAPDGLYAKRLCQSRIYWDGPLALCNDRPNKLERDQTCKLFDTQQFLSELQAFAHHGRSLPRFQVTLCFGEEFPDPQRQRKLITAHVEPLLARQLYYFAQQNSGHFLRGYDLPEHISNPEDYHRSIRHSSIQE

PRMT1 C109 (Q99873), sequence (Q99873 whole entry): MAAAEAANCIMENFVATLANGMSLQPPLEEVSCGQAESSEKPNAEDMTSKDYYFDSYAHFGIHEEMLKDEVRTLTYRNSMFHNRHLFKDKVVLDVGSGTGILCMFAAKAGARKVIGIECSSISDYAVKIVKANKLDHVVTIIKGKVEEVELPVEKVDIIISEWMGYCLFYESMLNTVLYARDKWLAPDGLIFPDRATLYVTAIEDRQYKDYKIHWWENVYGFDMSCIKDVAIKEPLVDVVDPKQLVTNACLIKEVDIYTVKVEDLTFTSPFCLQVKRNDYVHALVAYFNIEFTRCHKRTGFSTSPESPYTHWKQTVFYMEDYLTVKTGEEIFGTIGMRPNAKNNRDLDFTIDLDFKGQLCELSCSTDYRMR
ZNF217 C286 (O75362), sequence (O75362 whole entry): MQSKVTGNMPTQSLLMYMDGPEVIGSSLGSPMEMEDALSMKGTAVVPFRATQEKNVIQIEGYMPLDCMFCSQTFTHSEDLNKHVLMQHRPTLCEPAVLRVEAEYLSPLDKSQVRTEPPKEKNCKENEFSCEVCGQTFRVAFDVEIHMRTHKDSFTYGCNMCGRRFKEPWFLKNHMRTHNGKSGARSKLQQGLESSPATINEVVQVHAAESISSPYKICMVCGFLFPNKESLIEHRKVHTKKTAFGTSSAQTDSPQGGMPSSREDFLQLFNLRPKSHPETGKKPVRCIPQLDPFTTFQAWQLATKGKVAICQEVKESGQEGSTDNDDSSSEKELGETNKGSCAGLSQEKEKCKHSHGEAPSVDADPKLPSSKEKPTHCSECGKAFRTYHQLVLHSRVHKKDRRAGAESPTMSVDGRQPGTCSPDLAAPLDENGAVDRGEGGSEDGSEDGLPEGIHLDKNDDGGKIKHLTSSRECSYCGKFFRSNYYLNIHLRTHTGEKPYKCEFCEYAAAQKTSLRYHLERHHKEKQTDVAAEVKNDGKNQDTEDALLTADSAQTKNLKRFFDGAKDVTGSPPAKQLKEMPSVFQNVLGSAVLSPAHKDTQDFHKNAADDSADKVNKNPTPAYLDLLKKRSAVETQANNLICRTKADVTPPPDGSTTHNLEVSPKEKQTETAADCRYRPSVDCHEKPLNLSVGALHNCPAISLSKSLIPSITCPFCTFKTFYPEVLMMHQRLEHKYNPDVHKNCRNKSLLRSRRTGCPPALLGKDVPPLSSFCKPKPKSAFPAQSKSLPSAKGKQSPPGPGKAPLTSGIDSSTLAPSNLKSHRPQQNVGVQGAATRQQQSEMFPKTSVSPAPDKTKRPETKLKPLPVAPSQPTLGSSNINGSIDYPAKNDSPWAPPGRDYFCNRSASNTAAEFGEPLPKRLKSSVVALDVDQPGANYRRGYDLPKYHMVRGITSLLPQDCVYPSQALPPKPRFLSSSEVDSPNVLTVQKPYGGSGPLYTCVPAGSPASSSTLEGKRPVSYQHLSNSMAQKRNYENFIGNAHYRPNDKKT

COc1ccc2c(c1)CCCN2C(=O)CCl [compound 2]
R value (DMSO/fragment) ([1]; 500 μM): 1.4 | R value (DMSO/fragment) ([2]; 500 μM, in vitro, MDA-MB-231): 6.3 | R value (DMSO/fragment) ([2]; 500 μM, invitro, ramos): 7.1 | R value (DMSO/fragment) ([3]; 500 μM, in vitro, MDA-MB-231): 3.1 | R value (DMSO/fragment) ([3]; 500 μM, invitro, ramos): 12.6 | blockade of IA-alkyne labeling of C109 of PRMT1 [3]: blocking IA-alkyne labeling | R value (DMSO/fragment) ([4]; 500 μM, invitro, ramos): 1.8 | R value (DMSO/fragment) ([5]; 500 μM, in vitro, MDA-MB-231): 20.0 | R value (DMSO/fragment) ([5]; 500 μM, invitro, ramos): 20.0

O=C(CCl)Nc1cc(C(F)(F)F)cc(C(F)(F)F)c1 [compound 3]
R value (DMSO/fragment) ([1]; 500 μM): 2.2 | R value (DMSO/fragment) ([6]; 500 μM, invitro, ramos): 20.0 | R value (DMSO/fragment) ([2]; 500 μM, in vitro, MDA-MB-231): 17.9 | R value (DMSO/fragment) ([2]; 500 μM, invitro, ramos): 14.9 | R value (DMSO/fragment) ([3]; 500 μM, in vitro, MDA-MB-231): 1.3 | R value (DMSO/fragment) ([3]; 500 μM, invitro, ramos): 1.8 | R value (DMSO/fragment) ([4]; 500 μM, in vitro, MDA-MB-231): 1.7 | R value (DMSO/fragment) ([4]; 500 μM, invitro, ramos): 1.4 | R value (DMSO/fragment) ([5]; 500 μM, in vitro, MDA-MB-231): 1.4

COc1ccc(C2CC(c3cccs3)=NN2C(=O)CCl)cc1 (centres unmarked) [compound 4]
R value (DMSO/fragment) ([1]; 250 μM): 0.7 | R value (DMSO/fragment) ([2]; 250 μM, in vitro, MDA-MB-231): 1.3 | R value (DMSO/fragment) ([2]; 250 μM, in vitro, Ramos): 1.2 | R value (DMSO/fragment) ([3]; 250 μM, in vitro, MDA-MB-231): 1.1 | R value (DMSO/fragment) ([3]; 250 μM, in vitro, Ramos): 0.2 | R value (DMSO/fragment) ([4]; 250 μM, in vitro, Ramos): 0.9 | R value (DMSO/fragment) ([5]; 250 μM, in vitro, MDA-MB-231): 1.7

C=CC(=O)N(c1ccccc1)c1ccc(Br)cc1 [compound 5]
isoTOP-ABPP ratio, P48735_C308 ([1]; 500 μM): 0.8 | isoTOP-ABPP ratio, Q15306_C194 ([6]; 500 μM, invitro, ramos): 2.2 | isoTOP-ABPP ratio Q15084_C55 ([2]; 500 μM, invitro, 231): 0.9 | isoTOP-ABPP ratio Q15084_C55 ([2]; 500 μM, invitro, ramos): 1.1 | isoTOP-ABPP ratio, Q99873_C109 ([3]; 500 μM, invitro, 231): 0.9 | isoTOP-ABPP ratio, Q99873_C109 ([3]; 500 μM, invitro, ramos): 1.3 | isoTOP-ABPP ratio, P15374_C95 ([4]; 500 μM, invitro, 231): 1.5 | isoTOP-ABPP ratio, P15374_C95 ([4]; 500 μM, invitro, ramos): 1.1

O=C(CCl)N1CCN(S(=O)(=O)c2ccccc2F)CC1 [compound 10]
isoTOP-ABPP ratio, P48735_C308 ([1]; 500 μM): 1.1 | isoTOP-ABPP ratio, Q15306_C194 ([6]; 500 μM, invitro, ramos): 2.5 | isoTOP-ABPP ratio Q15084_C55 ([2]; 500 μM, invitro, 231): 20.0 | isoTOP-ABPP ratio, Q99873_C109 ([3]; 500 μM, invitro, 231): 2.3 | isoTOP-ABPP ratio, Q99873_C109 ([3]; 500 μM, invitro, ramos): 1.3 | isoTOP-ABPP ratio, P15374_C95 ([4]; 500 μM, invitro, 231): 2.0 | isoTOP-ABPP ratio O75362_C286 ([5]; 500 μM, invitro, 231): 1.1

Cn1cc(S(=O)(=O)N2CCOCC2)cc1C(=O)NC(=O)CCl [compound 11]
isoTOP-ABPP ratio, P48735_C308 ([1]; 500 μM): 1.1 | isoTOP-ABPP ratio, Q15306_C194 ([6]; 500 μM, invitro, ramos): 4.3 | isoTOP-ABPP ratio Q15084_C55 ([2]; 500 μM, invitro, 231): 20.0 | isoTOP-ABPP ratio Q15084_C55 ([2]; 500 μM, invitro, ramos): 20.0 | isoTOP-ABPP ratio, Q99873_C109 ([3]; 500 μM, invitro, 231): 20.0 | isoTOP-ABPP ratio, Q99873_C109 ([3]; 500 μM, invitro, ramos): 20.0 | blockade of IA-alkyne labeling of C109 of PRMT1 [3]: blocking IA-alkyne labeling | isoTOP-ABPP ratio, P15374_C95 ([4]; 500 μM, invitro, 231): 0.8 | isoTOP-ABPP ratio, P15374_C95 ([4]; 500 μM, invitro, ramos): 0.8 | isoTOP-ABPP ratio O75362_C286 ([5]; 500 μM, invitro, 231): 1.2 | isoTOP-ABPP ratio O75362_C286 ([5]; 500 μM, invitro, ramos): 1.2

N#C/C(=C\c1cc(C(F)(F)F)cc(C(F)(F)F)c1)C(N)=O [compound 23]
isoTOP-ABPP ratio (reactivity profile), Q15306_C194 ([6]; 500 μm in-vitro ramos): 1.9 | isoTOP-ABPP ratio (reactivity profile), Q15084_C55 ([2]; 500 μm in-vitro ramos): 1.0 | isoTOP-ABPP ratio (reactivity profile), Q15084_C55 ([2]; 500 μm in-vitro ramos_231): 0.8 | isoTOP-ABPP ratio (reactivity profile), Q99873_C109 ([3]; 500 μm in-vitro ramos): 1.0 | isoTOP-ABPP ratio (reactivity profile), Q99873_C109 ([3]; 500 μm in-vitro ramos_231): 0.8 | isoTOP-ABPP ratio (reactivity profile), P15374_C95 ([4]; 500 μm in-vitro ramos): 1.1 | isoTOP-ABPP ratio (reactivity profile), P15374_C95 ([4]; 500 μm in-vitro ramos_231): 0.8 | isoTOP-ABPP ratio (reactivity profile), O75362_C286 ([5]; 500 μm in-vitro ramos_231): 20.0
